Values belong to the compound of their own block, whether it stands above or below them.
Key:
[1] = in vivo; conditions: male, NodCB17 SCID, mouse, iv, 0.061 nmol, total radioactivity
Excerpt: Searching for a preliminary proof of concept of the intended pre-targeting approach, we synthesized a clickable TCO-containing bombesin antagonist (TCO-PEG4-AR) based on the potent GRPr antagonist AR reported in the literature, as described in the Supplementary Material ([29]). We hypothesized that the antagonist, when bound to the surface of human PC3 cells, would be available for the in vivo click reaction with the Tz-containing radiocomplex. As a control, the biodistribution data of the preformed [^90Y]Y-DOTA-Tz-TCO-PEG4-AR in PC3-xenografts bearing mice at 15 min and 1 h p.i. are available in Supplementary Table 5. For the pre-targeting approach, the tumor-bearing mice were injected with 1 nmol of the clickable bombesin antagonist and, after 4 h, we injected the radiocomplex [^90Y]Y-DOTA-Tz. […] In parallel, pre-targeting experiments based on ex-vivo biodistribution studies were performed in the same way for the congener [^111In]In-DOTA-Tz, and using the same animal model. […]
(§1) from whole animal body. Blood samples were taken by cardiac puncture at sacrifice. Tissue samples of the main organs were then dissected, weighted and counted in a gamma counter (Berthold).
(§2) Biodistribution results were expressed as percentage of the injected dose per gram tissue (%I.D./g) in the form of an average with standard deviation (%ID/g; mean ± standard deviation (SD).
(§3) Biodistribution in PC3 bearing mice
(§4) Male, 5-6 weeks old NodCB17 SCID mice were obtained from Janvier Lab., France. Mice were housed under pathogen-free conditions with food and water ad libitum, and a 12-12 hour light-dark cycle.
(§5) Veterinarian staff and investigators observed the mice daily to ensure animal welfare and determine if human endpoints (e.g., hunched and ruffled appearance, apathy, ulceration, severe weight loss, tumour burden) were reached. The mice were subcutaneously injected in the shoulder with 200 µL bolus containing a suspension of […] freshly harvested human prostatic cell line PC3 in Matrigel™ Basement Membrane Matrix (BD Sciences) under anaesthesia with 2% isoflurane. The animals were kept under pathogen-free condition and experiments were performed 2–3 weeks later when a tumour reached a volume of approximate 390 ± 190 mm3. Animals were allocated into treatment groups using a complete […]
(§6) The examination of physiological distribution for [90Y]Y-DOTA-Tz were carried out on 4 mice (n = 4). For the control bolus, 0.061 nmol, 0.1 mL, 7.5 µCi of [90Y]Y-DOTA-Tz was intravenously injected by tail vein. The examination of physiological distribution for [90Y]Y-DOTA-Tz-TCO-PEG4-AR were carried out on groups of 8 mice (n = 4). For the control bolus, 0.061 nmo l, 0.1 mL, 7.5 µCi of 90Y-DOTA-Tz TCO-PEG4-AR was intravenously injected by tail vein. At appropriate time points (15 min, 1h or 2h after-injection), the animals were euthanized, tissues of interest were dissected, weighted, and […]

[2] = in vivo; conditions: male, NodCB17 SCID, mouse, iv, total radioactivity
Excerpt: as §1, §2, §3, §4, §5
as §6, with “and their radioactivity was measured using NaI gamma counter supplied with adapter for the whole-body” for “and”
Biodistribution of 111In-DOTA-Tz-TCO-PEG4-AR was performed by intravenous injection of 100 µL (50 – 75 µCi) of the preparation into mice (n =4) via the tail vein. Immediately after injection, radioactive dosage administered into each animal was measured in a dose calibrator (Capintec CRC25R). For the in vivo click chemistry studies in the same PC3 xenografts (n=3), a bolus of 1 nmol of TCO-PEG4-AR, dissolved in 0.1 mL of saline, was injected in the tail vein, and after 4h the [111In]In-DOTA-Tz (0.1mL, 50 – 75 µCi µCi). After 1 h of administration of the radioactive preparations, the mice groups were sacrificed by cervical dislocation and the radioactivity in the sacrificed animal was measured. The difference between the radioactivity in the injected and the sacrificed animal was assumed to be due to total excretion. The animals were weighed and dissected. Then, tissues of interest were removed, weighed and counted in a γ-counter (Berthold, LB211, Germany).
For all the performed biodistribution studies, selected organs and tissues were assayed for their radioactivity and weighted. The physiological distribution was then calculated and expressed in terms of the percentage of the administrated radioactivity found in each of the selected organs or tissues per gram (%ID/g) in the form of an average with standard deviation (%ID/g; mean ± standard deviation
(1 picture or pasted object on this page, not shown here)

[3] = Biodistribution of [111In]In-radiocomplexes in healthy mice; type: in vivo
Method: We performed a biodistribution study of the four [^111In]In-radiocomplexes in healthy mice to determine the clearance rate from systemic blood circulation and the tissue/organ distribution over time. […] The urinary tract was identified as the main excretory pathway since the highest % I.D./g values were found in the kidneys for all the radiocomplexes, associated to rapid radioactivity excretion both at 15 min and 1 h p.i. […] page 9: from whole animal body. Blood samples were taken by cardiac puncture at sacrifice. […] The animals were kept under […] volume of approximate 390 ± 190 mm3. […] […] carried out on groups of 8 mice (n = 4). […] The animals were weighed and dissected.

Compound: CC(C)C[C@H](NC(=O)C[C@H](O)[C@H](CC(C)C)NC(=O)[C@H](Cc1c[nH]cn1)NC(=O)CNC(=O)[C@@H](NC(=O)[C@H](C)NC(=O)[C@H](Cc1c[nH]c2ccccc12)NC(=O)[C@H](CCC(N)=O)NC(=O)[C@@H](Cc1ccccc1)NC(=O)CCOCCOCCOCCOCCNC(=O)OC1CCCC2=CNN=C(c3ccc(CNC(=O)CN4CCN(CC(=O)O)CCN(CC(=O)O)CCN(CC(=O)O)CC4)cc3)C2CC1)C(C)C)C(N)=O (stereo partly shown) [[90Y]Y-DOTA-Tz-TCO-PEG4-AR, metal not drawn]
tissue uptake at 0.25 h ([1]; blood): 14.9 ± 3.89 %ID/g
tissue uptake at 1 h ([1]; blood): 2.65 ± 0.65 %ID/g
tissue uptake at 0.25 h ([1]; bone): 3.15 ± 1.87 %ID/g
tissue uptake at 1 h ([1]; bone): 0.7 ± 0.29 %ID/g
tissue uptake at 0.25 h ([1]; heart): 3.55 ± 0.62 %ID/g
tissue uptake at 1 h ([1]; heart): 0.61 ± 0.27 %ID/g
tissue uptake at 0.25 h ([1]; kidneys): 20.5 ± 7.97 %ID/g
tissue uptake at 1 h ([1]; kidneys): 2.94 ± 0.44 %ID/g
tissue uptake at 0.25 h ([1]; large intestine): 3.98 ± 0.68 %ID/g
tissue uptake at 1 h ([1]; large intestine): 0.67 ± 0.19 %ID/g
tissue uptake at 0.25 h ([1]; liver): 7.35 ± 3.27 %ID/g
tissue uptake at 1 h ([1]; liver): 0.82 ± 0.1 %ID/g
tissue uptake at 0.25 h ([1]; lung): 7.48 ± 1.92 %ID/g
tissue uptake at 1 h ([1]; lung): 1.57 ± 0.63 %ID/g
tissue uptake at 0.25 h ([1]; muscle): 2.36 ± 0.33 %ID/g
tissue uptake at 1 h ([1]; muscle): 0.41 ± 0.12 %ID/g
tissue uptake at 0.25 h ([1]; pancreas): 32 ± 3.86 %ID/g
tissue uptake at 1 h ([1]; pancreas): 14 ± 1.99 %ID/g
tissue uptake at 0.25 h ([1]; prostate): 26.3 ± 18 %ID/g
tissue uptake at 1 h ([1]; prostate): 3.48 ± 3.63 %ID/g
tissue uptake at 0.25 h ([1]; salivary gland): 3.69 ± 1.39 %ID/g
tissue uptake at 1 h ([1]; salivary gland): 0.6 ± 0.18 %ID/g
tissue uptake at 0.25 h ([1]; small intestine): 2.74 ± 0.28 %ID/g
tissue uptake at 1 h ([1]; small intestine): 0.99 ± 0.32 %ID/g
tissue uptake at 0.25 h ([1]; spleen): 4.03 ± 2.21 %ID/g
tissue uptake at 1 h ([1]; spleen): 1.08 ± 0.39 %ID/g
tissue uptake at 0.25 h ([1]; stomach): 4.72 ± 0.38 %ID/g
tissue uptake at 1 h ([1]; stomach): 1.95 ± 0.39 %ID/g
tissue uptake at 0.25 h ([1]; thyroid): 6.57 ± 3.95 %ID/g
tissue uptake at 1 h ([1]; thyroid): 0.99 ± 0.5 %ID/g
tissue uptake at 0.25 h ([1]; tumour): 6.32 ± 1.28 %ID/g
tissue uptake at 1 h ([1]; tumour): 2.26 ± 0.93 %ID/g
radiochemical purity after incubation in HS (human serum, 37 °C, 6 days, ITLC (citrate buffer pH 5.5, 0.1 M)): above 99%
stability of the preparation after radiolabelling (room temperature, HPLC): stable up to 24 hours

Compound: CC(C)C[C@H](NC(=O)C[C@H](O)[C@H](CC(C)C)NC(=O)[C@H](Cc1c[nH]cn1)NC(=O)CNC(=O)[C@@H](NC(=O)[C@H](C)NC(=O)[C@H](Cc1c[nH]c2ccccc12)NC(=O)[C@H](CCC(N)=O)NC(=O)[C@@H](Cc1ccccc1)NC(=O)CCOCCOCCOCCOCCNC(=O)OC1CCCC2=CNN=C(c3ccc(CNC(=O)CN4CCN(CC(=O)O)CCN(CC(=O)O)CCN(CC(=O)O)CC4)cc3)C2CC1)C(C)C)C(N)=O (stereo partly shown) [[111In]In-DOTA-Tz-TCO-PEG4-AR, metal not drawn]
tissue uptake at 1 h ([2]; blood): 1.2 ± 0.4 %ID/g
tissue uptake at 1 h ([2]; bone): 0.5 ± 0.1 %ID/g
tissue uptake at 1 h ([2]; heart): 0.5 ± 0.3 %ID/g
tissue uptake at 1 h ([2]; intestine): 1.09 ± 0.08 %ID/g
tissue uptake at 1 h ([2]; kidney): 3.7 ± 1.1 %ID/g
tissue uptake at 1 h ([2]; liver): 0.74 ± 0.06 %ID/g
tissue uptake at 1 h ([2]; lung): 0.7 ± 0.2 %ID/g
tissue uptake at 1 h ([2]; muscle): 0.3 ± 0.11 %ID/g
tissue uptake at 1 h ([2]; spleen): 0.4 ± 0.1 %ID/g
tissue uptake at 1 h ([2]; stomach): 0.9 ± 0.2 %ID/g
tissue uptake at 1 h ([2]; tumour): 2.5 ± 0.7 %ID/g
stability in CCM (cell culture media, 37 °C, up to 24 hours): excellent stabilities in CCM, with no degradation issues

Biodistribution: Blood ([3]; 15 min p.i.): 3.7 ± 0.6 % I.D./g
Biodistribution: Bone ([3]; 15 min p.i.): 0.8 ± 0.2 % I.D./g
Biodistribution: Heart ([3]; 15 min p.i.): 1.2 ± 0.6 % I.D./g
Biodistribution: Intestine ([3]; 15 min p.i.): 0.31 ± 0.05 % I.D./g
Biodistribution: Kidney ([3]; 15 min p.i.): 4.8 ± 0.7 % I.D./g
Biodistribution: Liver ([3]; 15 min p.i.): 0.8 ± 0.1 % I.D./g
Biodistribution: Lung ([3]; 15 min p.i.): 1.4 ± 0.2 % I.D./g
Biodistribution: Muscle ([3]; 15 min p.i.): 0.86 ± 0.07 % I.D./g
Biodistribution: Pancreas ([3]; 15 min p.i.): 0.53 ± 0.05 % I.D./g
Biodistribution: Spleen ([3]; 15 min p.i.): 0.6 ± 0.2 % I.D./g
Biodistribution: Stomach ([3]; 15 min p.i.): 1.0 ± 0.5 % I.D./g
Excretion ([3]; 15 min p.i.): 62.7 ± 2.6 % I.D.
Biodistribution: Blood ([3]; 1 h p.i.): 0.7 ± 0.4 % I.D./g
Biodistribution: Bone ([3]; 1 h p.i.): 0.17 ± 0.09 % I.D./g
Biodistribution: Heart ([3]; 1 h p.i.): 0.13 ± 0.08 % I.D./g
Biodistribution: Intestine ([3]; 1 h p.i.): 0.4 ± 0.2 % I.D./g
Biodistribution: Kidney ([3]; 1 h p.i.): 2.2 ± 0.6 % I.D./g
Biodistribution: Liver ([3]; 1 h p.i.): 0.3 ± 0.2 % I.D./g
Biodistribution: Lung ([3]; 1 h p.i.): 0.3 ± 0.2 % I.D./g
Biodistribution: Muscle ([3]; 1 h p.i.): 0.2 ± 0.1 % I.D./g
Biodistribution: Pancreas ([3]; 1 h p.i.): 0.12 ± 0.07 % I.D./g
Biodistribution: Spleen ([3]; 1 h p.i.): 0.11 ± 0.05 % I.D./g
Biodistribution: Stomach ([3]; 1 h p.i.): 1.1 ± 0.8 % I.D./g
Excretion ([3]; 1 h p.i.): 87.1 ± 6.9 % I.D.
Compound: O=C([O-])CN1CCN(CC(=O)[O-])CCN(C(CCC(=O)NCCOCCOCCOCCOCCOCCOCCOCCOCCOCCOCCOCCNC(=O)CCCC(=O)NCc2ccc(-c3nncnn3)cc2)C(=O)[O-])CCN(CC(=O)[O-])CC1.[111In+3] (stereo not shown) [[111In]In-DOTAGA-PEG-Tz]
